From ChEMBL document CHEMBL3045331, “A clubbed quinazolinone and 4-thiazolidinone as potential antimicrobial agents” (2012)
Values after ≈ are worked out from the molar mass of the structure shown.

Key:
Type in all cases: functional
[1] = test system: Streptococcus pyogenes; assay: Antibacterial activity against Streptococcus pyogenes MTCC-442 after 24 hr by serial broth dilution method; details: MTCC-442, 24 h
[2] = test system: Staphylococcus aureus; assay: Antibacterial activity against Staphylococcus aureus MTCC-96 after 24 hr by serial broth dilution method; details: MTCC-96, 24 h
[3] = test system: Escherichia coli; assay: Antibacterial activity against Escherichia coli MTCC 443 after 24 hr by serial broth dilution method; details: MTCC 443, 24 h
[4] = test system: Pseudomonas aeruginosa; assay: Antibacterial activity against Pseudomonas aeruginosa MTCC-1688 after 24 hr by serial broth dilution method; details: MTCC-1688, 24 h
[5] = test system: Aspergillus clavatus; assay: Antifungal activity against Aspergillus clavatus MTCC 1323 after 48 hr by spot subculture method; details: MTCC 1323, 48 h
[6] = test system: Aspergillus niger; assay: Antifungal activity against Aspergillus niger MTCC 282 after 48 hr by spot subculture method; details: MTCC 282, 48 h
[7] = test system: Candida albicans; assay: Antifungal activity against Candida albicans MTCC 227 after 48 hr by spot subculture method; details: MTCC 227, 48 h

Row | MIC99 [1] [µg/mL] | MIC99 [2] [µg/mL] | MIC99 [3] [µg/mL] | MIC99 [4] [µg/mL] | MIC99 [5] [µg/mL] | MIC99 [6] [µg/mL] | MIC99 [7] [µg/mL] | Compound
1 | 50 (≈ 76.6 µM) | 100 (≈ 153 µM) | 100 (≈ 153 µM) | 500 (≈ 766 µM) | 100 (≈ 153 µM) | 1000 (≈ 1530 µM) | 1000 (≈ 1530 µM) | Cc1ccc(-c2nc3ccccc3c(=O)n2-c2ccc(C(=O)NN3C(=O)/C(=C/c4ccc(O)cc4)SC3c3ccc(O)cc3)cc2)cc1 (stereo not given)
2 | 200 (≈ 275 µM) | 100 (≈ 138 µM) | 100 (≈ 138 µM) | 100 (≈ 138 µM) | 1000 (≈ 1380 µM) | 100 (≈ 138 µM) | 1000 (≈ 1380 µM) | COc1cc(/C=C2\SC(c3ccc(O)cc3)N(NC(=O)c3ccc(-n4c(-c5ccc(C)cc5)nc5ccccc5c4=O)cc3)C2=O)cc(OC)c1OC (stereo not given)
3 | 500 (≈ 733 µM) | 50 (≈ 73.3 µM) | 25 (≈ 36.7 µM) | 100 (≈ 147 µM) | 500 (≈ 733 µM) | 100 (≈ 147 µM) | 100 (≈ 147 µM) | Cc1ccc(-c2nc3ccccc3c(=O)n2-c2ccc(C(=O)NN3C(=O)/C(=C/c4cccc([N+](=O)[O-])c4)SC3c3ccc(O)cc3)cc2)cc1 (stereo not given)
4 |  |  |  |  | 100 (≈ 283 µM) | 100 (≈ 283 µM) | 500 (≈ 1420 µM) | COC1=CC(=O)C[C@@H](C)[C@]12Oc1c(Cl)c(OC)cc(OC)c1C2=O [GRISEOFULVIN]
5 | 500 (≈ 745 µM) | 500 (≈ 745 µM) | 50 (≈ 74.5 µM) | 100 (≈ 149 µM) | 1000 (≈ 1490 µM) | 1000 (≈ 1490 µM) | 100 (≈ 149 µM) | Cc1ccc(-c2nc3ccccc3c(=O)n2-c2ccc(C(=O)NN3C(=O)/C(=C/c4ccc(Cl)cc4)SC3c3ccc(O)cc3)cc2)cc1 (stereo not given)
6 | 100 (≈ 286 µM) | 250 (≈ 715 µM) | 100 (≈ 286 µM) | 100 (≈ 286 µM) |  |  |  | CC1(C)S[C@@H]2[C@H](NC(=O)[C@H](N)c3ccccc3)C(=O)N2[C@H]1C(=O)O [AMPICILLIN]
7 | 500 (≈ 732 µM) | 250 (≈ 366 µM) | 100 (≈ 146 µM) | 200 (≈ 293 µM) | 500 (≈ 732 µM) | 1000 (≈ 1460 µM) | 500 (≈ 732 µM) | COc1ccc(/C=C2\SC(c3ccc(O)cc3)N(NC(=O)c3ccc(-n4c(-c5ccc(C)cc5)nc5ccccc5c4=O)cc3)C2=O)c(O)c1 (stereo not given)
8 | 100 (≈ 157 µM) | 500 (≈ 785 µM) | 200 (≈ 314 µM) | 500 (≈ 785 µM) | 1000 (≈ 1570 µM) | 1000 (≈ 1570 µM) | 500 (≈ 785 µM) | Cc1ccc(-c2nc3ccccc3c(=O)n2-c2ccc(C(=O)NN3C(=O)/C(=C/c4ccccc4)SC3c3ccc(O)cc3)cc2)cc1 (stereo not given)
9 | 500 (≈ 750 µM) | 500 (≈ 750 µM) | 100 (≈ 150 µM) | 500 (≈ 750 µM) | 100 (≈ 150 µM) | 100 (≈ 150 µM) | 1000 (≈ 1500 µM) | COc1ccc(/C=C2\SC(c3ccc(O)cc3)N(NC(=O)c3ccc(-n4c(-c5ccc(C)cc5)nc5ccccc5c4=O)cc3)C2=O)cc1 (stereo not given)
10 | 100 (≈ 149 µM) | 500 (≈ 745 µM) | 200 (≈ 298 µM) | 500 (≈ 745 µM) | 1000 (≈ 1490 µM) | 1000 (≈ 1490 µM) | 1000 (≈ 1490 µM) | Cc1ccc(-c2nc3ccccc3c(=O)n2-c2ccc(C(=O)NN3C(=O)/C(=C/c4ccccc4Cl)SC3c3ccc(O)cc3)cc2)cc1 (stereo not given)
11 | 100 (≈ 142 µM) | 100 (≈ 142 µM) | 50 (≈ 70.9 µM) | 200 (≈ 283 µM) | 1000 (≈ 1420 µM) | 100 (≈ 142 µM) | 500 (≈ 709 µM) | Cc1ccc(-c2nc3ccccc3c(=O)n2-c2ccc(C(=O)NN3C(=O)/C(=C/c4c(Cl)cccc4Cl)SC3c3ccc(O)cc3)cc2)cc1 (stereo not given)
12 | 100 (≈ 137 µM) | 250 (≈ 342 µM) | 500 (≈ 683 µM) | 500 (≈ 683 µM) | 100 (≈ 137 µM) | 1000 (≈ 1370 µM) | 500 (≈ 683 µM) | Cc1ccc(-c2nc3ccccc3c(=O)n2-c2ccc(C(=O)NN3C(=O)/C(=C/c4cc(Br)ccc4O)SC3c3ccc(O)cc3)cc2)cc1 (stereo not given)
13 | 100 (≈ 142 µM) | 100 (≈ 142 µM) | 100 (≈ 142 µM) | 50 (≈ 71.1 µM) | 100 (≈ 142 µM) | 1000 (≈ 1420 µM) | 100 (≈ 142 µM) | Cc1ccc(-c2nc3ccccc3c(=O)n2-c2ccc(C(=O)NN3C(=O)/C(=C/c4ccc5ccccc5c4O)SC3c3ccc(O)cc3)cc2)cc1 (stereo not given)
14 | 250 (≈ 382 µM) | 100 (≈ 153 µM) | 500 (≈ 764 µM) | 50 (≈ 76.4 µM) | 1000 (≈ 1530 µM) | 500 (≈ 764 µM) | 100 (≈ 153 µM) | Cc1ccc(-c2nc3ccccc3c(=O)n2-c2ccc(C(=O)NN3C(=O)/C(=C/c4ccc(F)cc4)SC3c3ccc(O)cc3)cc2)cc1 (stereo not given)
15 | 500 (≈ 750 µM) | 100 (≈ 150 µM) | 500 (≈ 750 µM) | 100 (≈ 150 µM) | 500 (≈ 750 µM) | 500 (≈ 750 µM) | 500 (≈ 750 µM) | COc1ccccc1/C=C1\SC(c2ccc(O)cc2)N(NC(=O)c2ccc(-n3c(-c4ccc(C)cc4)nc4ccccc4c3=O)cc2)C1=O (stereo not given)
16 | 100 (≈ 147 µM) | 1000 (≈ 1470 µM) | 25 (≈ 36.8 µM) | 200 (≈ 294 µM) | 500 (≈ 736 µM) | 100 (≈ 147 µM) | 1000 (≈ 1470 µM) | Cc1ccc(-c2nc3ccccc3c(=O)n2-c2ccc(C(=O)NN3C(=O)/C(=C/c4ccc(N(C)C)cc4)SC3c3ccc(O)cc3)cc2)cc1 (stereo not given)
